Source: ChEMBL document CHEMBL1201862, “PubChem BioAssay data set” (2004)
The source made the active and inactive calls.

Assays:
Protein Rev = Protein Rev (Human immunodeficiency virus type 1 group M subtype B (isolate HXB2)(HIV-1), UniProt P04618); assay: blockers of HIV Rev/RRE RNA complex – biochemical, fluorescence polarization, HIV-1, dose response (AID 434976); design: species or system Human immunodeficiency virus 1
[1] = target: Female germline-specific tumor suppressor gld-1 (Caenorhabditis elegans, UniProt Q17339); assay: blockers of GLD-1/TGE RNA complex formation – biochemical, fluorescence polarization, C. elegans, dose response (AID 2802);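 further: fluorescence polarization of labeled TGE RNA bound by purified gld-1 protein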
[2] = target: T1, Polyadenylate-binding protein 1 (Homo sapiens, UniProt P11940); assay: MLLE binding blockers, Cy5 peptide tracer – biochemical, fluorescence polarization, Cy5-PAM2 peptide, secondary, miRNA deadenylation inhibitor project, dose response (AID 602260); type: functional; settings: read-out: IC50_Mean
T1 sequence (P11940 whole entry, the tested form may be a part): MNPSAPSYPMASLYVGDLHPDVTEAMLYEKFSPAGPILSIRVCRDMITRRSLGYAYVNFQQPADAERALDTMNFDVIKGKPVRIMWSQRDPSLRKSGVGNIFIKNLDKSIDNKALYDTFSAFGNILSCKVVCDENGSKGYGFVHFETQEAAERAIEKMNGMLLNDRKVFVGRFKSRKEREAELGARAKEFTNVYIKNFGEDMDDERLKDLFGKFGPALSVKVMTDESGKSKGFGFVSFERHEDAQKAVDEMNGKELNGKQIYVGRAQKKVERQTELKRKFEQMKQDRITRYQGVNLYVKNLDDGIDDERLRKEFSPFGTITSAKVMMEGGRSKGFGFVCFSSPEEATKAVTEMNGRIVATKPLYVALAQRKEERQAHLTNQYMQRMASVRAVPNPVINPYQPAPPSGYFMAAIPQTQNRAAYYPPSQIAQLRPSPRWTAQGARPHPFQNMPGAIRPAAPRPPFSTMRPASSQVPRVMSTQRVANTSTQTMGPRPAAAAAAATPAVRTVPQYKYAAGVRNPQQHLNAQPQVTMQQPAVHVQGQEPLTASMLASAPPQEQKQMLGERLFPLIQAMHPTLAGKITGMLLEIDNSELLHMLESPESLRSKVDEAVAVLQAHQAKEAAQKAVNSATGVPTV

[3] = target: T1, Polyadenylate-binding protein 1; assay: MLLE domain peptide-binding blockers, IC50 – biochemical, fluorescence polarization, FITC-PAM2 peptide, dose response (AID 602259); type: functional; settings: read-out: IC50_Mean
Protein Tat = target: T2, Protein Tat (Human immunodeficiency virus type 1 group M subtype B (isolate HXB2)(HIV-1), UniProt P04608); type: functional;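 further: tat binding to TAR RNA read out by fluorescence polarization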
T2 sequence (P04608 whole entry): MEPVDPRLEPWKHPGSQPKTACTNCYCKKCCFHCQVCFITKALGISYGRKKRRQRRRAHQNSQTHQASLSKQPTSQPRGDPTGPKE

[4] = viability loss in THP-1 monocytes – THP-1 cells, cytotoxicity control for Vif-APOBEC3G degradation inhibitor project, dose response (AID 1117359); type: functional; settings: THP-1
Trypsin = Trypsin (Sus scrofa, UniProt P00761); assay: trypsin protease activity blockade – biochemical, quenched peptide fluorescence, cherry-pick, selectivity assay for Rce1 protease inhibitor project, dose response (AID 488789)
Trypsin, sequence (P00761 whole entry): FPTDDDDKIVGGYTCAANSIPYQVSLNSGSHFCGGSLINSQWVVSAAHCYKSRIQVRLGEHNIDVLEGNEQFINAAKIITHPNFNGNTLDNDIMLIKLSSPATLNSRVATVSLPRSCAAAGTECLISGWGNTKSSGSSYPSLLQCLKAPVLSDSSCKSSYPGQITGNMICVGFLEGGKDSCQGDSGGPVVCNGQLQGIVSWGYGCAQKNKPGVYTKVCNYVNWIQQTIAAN

CAAX prenyl protease 2 = CAAX prenyl protease 2 (Saccharomyces cerevisiae S288c, UniProt Q03530); type: biochemical
CAAX prenyl protease 2, sequence (Q03530 whole entry): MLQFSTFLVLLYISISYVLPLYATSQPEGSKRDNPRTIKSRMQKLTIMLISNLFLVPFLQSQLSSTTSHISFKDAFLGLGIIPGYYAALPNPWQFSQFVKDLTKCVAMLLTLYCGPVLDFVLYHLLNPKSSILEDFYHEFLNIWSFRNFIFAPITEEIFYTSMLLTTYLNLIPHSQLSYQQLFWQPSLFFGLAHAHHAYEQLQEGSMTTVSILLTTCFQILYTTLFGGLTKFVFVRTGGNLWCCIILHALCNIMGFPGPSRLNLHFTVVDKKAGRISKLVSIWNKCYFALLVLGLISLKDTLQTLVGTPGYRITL

[5] = target: T3, Dual specificity protein phosphatase 3 (Homo sapiens, UniProt P51452); assay: VHR1 phosphatase inhibitors, primary screen, biochemical, absorbance, uHTS (AID 1654)
T3 sequence (P51452 whole entry): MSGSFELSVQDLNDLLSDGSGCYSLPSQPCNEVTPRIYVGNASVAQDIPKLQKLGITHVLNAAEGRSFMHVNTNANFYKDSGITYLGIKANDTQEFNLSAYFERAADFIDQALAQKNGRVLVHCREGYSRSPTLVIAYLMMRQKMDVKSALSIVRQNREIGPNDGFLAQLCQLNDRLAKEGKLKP

[6] = target: Serine/threonine-protein phosphatase PP1-alpha catalytic subunit (Homo sapiens, UniProt P62136); assay: inhibition of protein phosphatase 1 activity – biochemical, fluorescence, dose response (AID 2403);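 further: phosphatase turnover of OMFP into fluorescent 3-O-methylfluorescein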
Serine/threonine-protein phosphatase PP1-alpha catalytic subunit, sequence (P62136 whole entry): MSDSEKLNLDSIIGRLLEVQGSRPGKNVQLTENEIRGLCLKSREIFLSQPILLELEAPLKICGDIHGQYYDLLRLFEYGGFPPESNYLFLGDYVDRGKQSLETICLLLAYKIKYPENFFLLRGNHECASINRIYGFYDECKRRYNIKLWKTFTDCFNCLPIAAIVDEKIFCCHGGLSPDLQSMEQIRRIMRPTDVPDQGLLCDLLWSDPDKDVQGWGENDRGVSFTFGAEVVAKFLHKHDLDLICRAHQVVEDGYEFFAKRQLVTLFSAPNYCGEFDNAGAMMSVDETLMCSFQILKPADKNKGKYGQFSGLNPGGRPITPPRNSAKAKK

[7] = target: T4, Voltage-gated N-type calcium channel alpha-1B subunit/Amyloid beta A4 precursor protein-binding family A member 1 (Homo sapiens, UniProt Q00975+Q02410); type: protein assay
T4 sequence (Q00975 whole entry): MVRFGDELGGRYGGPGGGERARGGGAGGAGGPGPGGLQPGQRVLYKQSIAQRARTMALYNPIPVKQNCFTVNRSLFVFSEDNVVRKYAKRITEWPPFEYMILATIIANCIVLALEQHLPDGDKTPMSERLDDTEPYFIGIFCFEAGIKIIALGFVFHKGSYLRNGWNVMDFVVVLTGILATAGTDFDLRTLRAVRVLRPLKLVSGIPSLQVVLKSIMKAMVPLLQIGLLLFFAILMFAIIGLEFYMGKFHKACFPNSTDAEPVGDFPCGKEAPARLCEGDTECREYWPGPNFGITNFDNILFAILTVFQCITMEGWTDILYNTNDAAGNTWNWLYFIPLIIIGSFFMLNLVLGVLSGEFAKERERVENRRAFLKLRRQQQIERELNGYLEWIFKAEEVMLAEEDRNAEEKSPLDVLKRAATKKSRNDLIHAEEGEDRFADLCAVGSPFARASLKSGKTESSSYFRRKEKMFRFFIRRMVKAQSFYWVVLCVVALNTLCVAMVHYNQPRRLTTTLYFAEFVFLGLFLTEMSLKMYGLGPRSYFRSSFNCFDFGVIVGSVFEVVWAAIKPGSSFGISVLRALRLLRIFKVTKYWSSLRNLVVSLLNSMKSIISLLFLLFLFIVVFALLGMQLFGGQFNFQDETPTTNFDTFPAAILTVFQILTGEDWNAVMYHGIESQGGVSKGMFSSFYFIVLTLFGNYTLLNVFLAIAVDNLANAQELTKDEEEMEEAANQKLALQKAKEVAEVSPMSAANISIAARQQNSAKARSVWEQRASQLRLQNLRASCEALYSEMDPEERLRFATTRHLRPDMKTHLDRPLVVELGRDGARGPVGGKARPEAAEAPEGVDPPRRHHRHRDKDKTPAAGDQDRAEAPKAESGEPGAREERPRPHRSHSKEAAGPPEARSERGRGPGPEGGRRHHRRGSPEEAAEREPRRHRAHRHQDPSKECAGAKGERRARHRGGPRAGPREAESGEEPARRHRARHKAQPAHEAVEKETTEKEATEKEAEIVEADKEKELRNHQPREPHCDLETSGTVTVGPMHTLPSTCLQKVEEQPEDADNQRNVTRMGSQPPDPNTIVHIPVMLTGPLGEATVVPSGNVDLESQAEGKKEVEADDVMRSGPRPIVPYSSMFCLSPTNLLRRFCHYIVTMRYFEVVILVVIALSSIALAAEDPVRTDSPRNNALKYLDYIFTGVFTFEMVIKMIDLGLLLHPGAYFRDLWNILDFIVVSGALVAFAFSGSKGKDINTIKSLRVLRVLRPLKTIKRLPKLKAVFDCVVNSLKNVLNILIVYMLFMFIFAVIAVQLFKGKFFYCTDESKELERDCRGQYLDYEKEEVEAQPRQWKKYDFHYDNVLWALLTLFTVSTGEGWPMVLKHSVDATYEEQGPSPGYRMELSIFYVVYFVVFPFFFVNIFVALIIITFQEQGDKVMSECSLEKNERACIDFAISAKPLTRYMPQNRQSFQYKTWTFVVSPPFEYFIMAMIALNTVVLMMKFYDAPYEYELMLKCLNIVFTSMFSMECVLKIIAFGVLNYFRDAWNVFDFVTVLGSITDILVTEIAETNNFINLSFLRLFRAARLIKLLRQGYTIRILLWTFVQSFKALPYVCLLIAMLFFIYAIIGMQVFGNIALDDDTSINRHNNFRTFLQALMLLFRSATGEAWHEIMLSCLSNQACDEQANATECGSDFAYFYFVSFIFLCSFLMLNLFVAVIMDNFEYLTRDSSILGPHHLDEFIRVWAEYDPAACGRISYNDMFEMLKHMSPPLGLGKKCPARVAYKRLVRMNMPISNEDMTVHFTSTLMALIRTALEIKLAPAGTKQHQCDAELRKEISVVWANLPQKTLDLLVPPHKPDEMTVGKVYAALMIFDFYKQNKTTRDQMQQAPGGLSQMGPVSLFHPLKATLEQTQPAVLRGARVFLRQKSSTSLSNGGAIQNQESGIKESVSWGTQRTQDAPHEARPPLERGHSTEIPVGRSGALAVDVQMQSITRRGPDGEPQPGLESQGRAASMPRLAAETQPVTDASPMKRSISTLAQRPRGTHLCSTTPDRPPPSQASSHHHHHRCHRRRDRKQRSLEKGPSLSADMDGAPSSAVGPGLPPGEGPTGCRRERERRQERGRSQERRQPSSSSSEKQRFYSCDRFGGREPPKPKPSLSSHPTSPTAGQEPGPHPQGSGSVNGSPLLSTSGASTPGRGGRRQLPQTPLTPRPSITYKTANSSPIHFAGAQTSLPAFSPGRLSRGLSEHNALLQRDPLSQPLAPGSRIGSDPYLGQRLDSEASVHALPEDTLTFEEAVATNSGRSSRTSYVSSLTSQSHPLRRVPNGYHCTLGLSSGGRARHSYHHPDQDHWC
T4 sequence (Q02410 whole entry): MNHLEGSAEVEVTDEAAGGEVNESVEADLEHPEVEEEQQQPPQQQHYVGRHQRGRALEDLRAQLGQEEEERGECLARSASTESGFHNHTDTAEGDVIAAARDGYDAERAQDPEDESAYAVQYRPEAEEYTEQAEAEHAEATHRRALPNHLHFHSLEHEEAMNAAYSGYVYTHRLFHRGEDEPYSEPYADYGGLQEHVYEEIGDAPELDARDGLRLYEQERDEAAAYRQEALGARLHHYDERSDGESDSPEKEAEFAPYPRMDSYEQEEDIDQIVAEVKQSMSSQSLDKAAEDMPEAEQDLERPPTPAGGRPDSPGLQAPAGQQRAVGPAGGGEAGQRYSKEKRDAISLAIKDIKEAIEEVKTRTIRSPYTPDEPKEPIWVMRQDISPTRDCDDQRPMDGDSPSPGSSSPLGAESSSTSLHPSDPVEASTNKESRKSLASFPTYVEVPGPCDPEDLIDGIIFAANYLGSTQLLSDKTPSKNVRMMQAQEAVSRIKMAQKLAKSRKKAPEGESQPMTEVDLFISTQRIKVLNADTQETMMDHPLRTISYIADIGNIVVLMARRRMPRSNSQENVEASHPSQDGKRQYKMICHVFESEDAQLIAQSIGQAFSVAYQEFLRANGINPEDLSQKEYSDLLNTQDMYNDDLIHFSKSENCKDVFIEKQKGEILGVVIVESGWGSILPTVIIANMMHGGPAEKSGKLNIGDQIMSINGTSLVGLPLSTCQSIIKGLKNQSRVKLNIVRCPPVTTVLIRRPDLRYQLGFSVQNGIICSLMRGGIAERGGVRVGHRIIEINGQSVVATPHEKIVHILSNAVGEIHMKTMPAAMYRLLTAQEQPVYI

[8] = target: T4, Voltage-gated N-type calcium channel alpha-1B subunit/Amyloid beta A4 precursor protein-binding family A member 1; type: protein assay; remark: listed apart in the source
[9] = target: Serine/threonine-protein phosphatase (Homo sapiens, UniProt Q9BPW0); assay: Counterscreen for inhibitors of PP1: fluorescence-based biochemical high throughput dose response assay to identify inhibitors of Protein Phosphatase 5 (PP5). [Related pubchem assays: 2034 (Summary (PP5 inhibitors)), 1987 (PP5 inhibitors in singlate), 2235 (PP1 inhibitors in singlate)]
[10] = target: T3, Dual specificity protein phosphatase 3; assay: VHR1 phosphatase inhibitors, biochemical (AID 1878)
[11] = target: T5, Dual specificity protein phosphatase 6 (Rattus norvegicus, UniProt Q64346); assay: inhibition of rat DUSP6 enzyme activity – biochemical, in vitro, primary screen (AID 425)
T5 sequence (Q64346 whole entry): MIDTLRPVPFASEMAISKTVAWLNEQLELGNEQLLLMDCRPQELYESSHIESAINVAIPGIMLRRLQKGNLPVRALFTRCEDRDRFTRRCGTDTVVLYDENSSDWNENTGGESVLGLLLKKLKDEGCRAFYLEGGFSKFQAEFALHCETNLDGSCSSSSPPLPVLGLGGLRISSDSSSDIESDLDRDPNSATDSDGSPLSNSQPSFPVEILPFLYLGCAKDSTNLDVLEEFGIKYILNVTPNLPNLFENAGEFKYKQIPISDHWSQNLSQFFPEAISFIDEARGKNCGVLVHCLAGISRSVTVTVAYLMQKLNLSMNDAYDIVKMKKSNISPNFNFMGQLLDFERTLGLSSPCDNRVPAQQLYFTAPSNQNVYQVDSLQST

[12] = target: Tyrosine-protein phosphatase non-receptor type 12 (Homo sapiens, UniProt Q05209); assay: SAR Selectivity Analysis of small molecule inhibitors of PEST using pCAP in a fluorescence assay. [Related pubchem assays (depositor defined):AID1779, AID1784, AID2135]; type: functional
[13] = target: T3, Dual specificity protein phosphatase 3; assay: SAR VHR1 absorbance Assay for In Vitro dose response studies. [Related pubchem assays (depositor defined):AID1654, AID1661, AID1878, AID1992, AID2004]
[14] = target: T3, Dual specificity protein phosphatase 3; assay: SAR VHR1 Fluorescent Assay for In Vitro dose response studies. [Related pubchem assays (depositor defined):AID1654, AID1661, AID1878, AID1992, AID2004, AID2070, AID2085]; type: functional
[15] = target: T6, Tyrosine-protein phosphatase non-receptor type 22 (Homo sapiens, UniProt Q9Y2R2); assay: SAR LYP1 Fluorescent Assay using OMFP substrate for In Vitro dose response studies - Set 3. [Related pubchem assays (depositor defined):AID1779, AID1784, AID2140, AID2686]; type: functional
T6 sequence (Q9Y2R2 whole entry): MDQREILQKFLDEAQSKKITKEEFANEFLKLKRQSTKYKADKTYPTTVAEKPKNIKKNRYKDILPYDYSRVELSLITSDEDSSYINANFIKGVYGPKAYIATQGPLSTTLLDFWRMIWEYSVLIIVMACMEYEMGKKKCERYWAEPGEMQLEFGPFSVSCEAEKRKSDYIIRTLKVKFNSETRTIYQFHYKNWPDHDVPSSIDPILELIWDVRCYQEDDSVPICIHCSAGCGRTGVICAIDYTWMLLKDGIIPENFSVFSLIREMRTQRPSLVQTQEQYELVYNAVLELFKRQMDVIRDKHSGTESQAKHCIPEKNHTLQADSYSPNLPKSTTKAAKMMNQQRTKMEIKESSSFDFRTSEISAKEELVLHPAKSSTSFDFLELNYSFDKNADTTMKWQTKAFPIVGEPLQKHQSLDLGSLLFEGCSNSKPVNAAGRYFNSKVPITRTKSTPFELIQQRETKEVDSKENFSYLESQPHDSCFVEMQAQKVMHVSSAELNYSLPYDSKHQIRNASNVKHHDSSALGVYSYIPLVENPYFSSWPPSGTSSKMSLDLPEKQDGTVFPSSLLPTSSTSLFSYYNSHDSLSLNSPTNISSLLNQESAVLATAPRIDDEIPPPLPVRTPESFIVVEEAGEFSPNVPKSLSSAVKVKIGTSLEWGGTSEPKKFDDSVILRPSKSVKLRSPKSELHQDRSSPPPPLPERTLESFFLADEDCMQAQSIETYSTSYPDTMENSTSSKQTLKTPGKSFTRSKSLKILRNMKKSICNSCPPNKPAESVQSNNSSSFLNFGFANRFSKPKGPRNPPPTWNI

[16] = target: T7, Tyrosine-protein phosphatase non-receptor type 7 (Homo sapiens, UniProt P35236); assay: redox-active compounds inhibiting HePTP phosphatase – biochemical, fluorescence, mechanism study (AID 2068); type: functional
T7 sequence (P35236 whole entry): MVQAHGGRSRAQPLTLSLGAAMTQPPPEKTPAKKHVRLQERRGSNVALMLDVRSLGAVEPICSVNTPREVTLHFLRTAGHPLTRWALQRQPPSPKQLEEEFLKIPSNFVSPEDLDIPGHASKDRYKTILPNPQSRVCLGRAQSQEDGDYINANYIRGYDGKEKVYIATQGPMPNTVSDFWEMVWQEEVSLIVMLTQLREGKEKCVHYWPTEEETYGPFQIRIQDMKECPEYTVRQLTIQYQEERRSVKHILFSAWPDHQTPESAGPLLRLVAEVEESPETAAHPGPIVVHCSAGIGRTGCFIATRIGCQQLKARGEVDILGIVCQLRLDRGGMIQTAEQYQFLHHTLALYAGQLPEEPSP

[17] = target: T6, Tyrosine-protein phosphatase non-receptor type 22; assay: inhibition of lymphoid tyrosine phosphatase LYP – biochemical, pCAP fluorogenic substrate, fluorescence, set 3, SAR follow-up (AID 449727); type: functional
[18] = target: T5, Dual specificity protein phosphatase 6; type: functional
[19] = target: T8, Long-chain-fatty-acid--AMP ligase FadD28 (Mycobacterium tuberculosis, UniProt P9WQ59); assay: Fluorescence polarization aasay to screen for inhibitors that compete for the binding of FadD28 to a bisubstrate Measured in Biochemical System Using Plate Reader - 2147-01_Inhibitor_Dose_CherryPick_Activity.; type: functional, Mycobacterium tuberculosis H37Rv
T8 sequence (P9WQ59 whole entry): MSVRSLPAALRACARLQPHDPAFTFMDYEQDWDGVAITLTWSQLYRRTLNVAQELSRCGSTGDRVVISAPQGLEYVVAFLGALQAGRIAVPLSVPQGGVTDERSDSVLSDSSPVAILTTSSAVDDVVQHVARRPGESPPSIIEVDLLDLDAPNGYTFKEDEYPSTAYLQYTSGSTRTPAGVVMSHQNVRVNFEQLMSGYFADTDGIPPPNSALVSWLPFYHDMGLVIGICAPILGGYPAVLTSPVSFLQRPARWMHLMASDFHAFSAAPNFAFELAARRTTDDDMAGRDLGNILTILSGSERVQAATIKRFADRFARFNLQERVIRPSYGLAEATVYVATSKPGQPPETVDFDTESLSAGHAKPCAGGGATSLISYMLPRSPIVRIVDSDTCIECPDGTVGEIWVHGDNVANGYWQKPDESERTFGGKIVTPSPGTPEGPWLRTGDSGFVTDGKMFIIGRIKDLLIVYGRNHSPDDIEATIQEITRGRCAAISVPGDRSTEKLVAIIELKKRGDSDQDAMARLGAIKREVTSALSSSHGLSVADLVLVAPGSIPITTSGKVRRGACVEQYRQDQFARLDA

Protein Rev, sequence (P04618 whole entry): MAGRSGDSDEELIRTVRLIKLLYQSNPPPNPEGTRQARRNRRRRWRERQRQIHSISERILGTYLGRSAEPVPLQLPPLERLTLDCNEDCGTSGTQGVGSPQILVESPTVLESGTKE

## Clc1ccc(/C=N/c2c(-c3ccco3)nc3ccccn23)cc1
Protein Rev
  IC50: > 75.4 µM (not active)
[1]
  IC50: 2.59 µM (active)
[2]
  IC50: > 66 µM (inactive)
[3]
  IC50: 59.2 µM (inactive)
Protein Tat
  IC50: 6.48 µM (inconclusive)
[4]
  CC50: > 40 µM (active)

## N#Cc1nc(-c2ccco2)oc1N1CCN(C(c2ccccc2)c2ccccc2)CC1
Trypsin
  AC50: 41.5 µM (active)
CAAX prenyl protease 2
  AC50: 0.99 µM (active)

## COc1cc(/C=C2\SC(=O)N(CC(=O)Nc3ccc(C)cc3)C2=O)cc(Cl)c1OCC(=O)O
[5]
  IC50: 5.01 µM (active)
[6]
  IC50: 6.24 µM (active)
[7]
  IC50: 6.91 µM (active)
[8]
  IC50: > 50 µM (inactive)
[9]
  IC50: > 67 µM (not active)
[10]
  IC50: < 1.23 µM (inactive)
[11]
  IC50: 75.2 µM (active)
[12]
  IC50: 0.313 µM (active)
[13]
  IC50: 2.4 µM (active)
[14]
  IC50: 1.18 µM (active)
[15]
  IC50: 1.51 µM (active)
[16]
  IC50: 0.256 µM (active)
[17]
  IC50: 0.803 µM (active)
[18]
  IC50: 6.66 µM (active)
[19]
  AC50: > 100 µM (inactive)
